The source of these data is patent US20190358345A1, “A[…]-IN[…] NANOPARTICLES AND PREPARATION METHODS THEREFOR” (CHINA PHARMACEUTICAL UNIVERSITY, priority 2017, published 2019).

The series in a line: Dynamic light scattering of nanoparticles. Format: physicochemical. The settings on record: self-assembled in aqueous solution. The protocol: The foregoing amphiphilic nonsteroid anti-inflammatory platinum is dissolved in DMF, dropped into an aqueous solution at room temperature, and the DMF is removed by dialysis to obtain an amphiphilic nonsteroid anti-inflammatory platinum nanoparticle solution. The dynamic light scattering results of the antitumor cisplatin-tonifamic acid nanoparticles prepared in this embodiment are shown in FIG. 3, and the means particle size of the nanoparticles is 157 nm.
CDDP (150 mg), AgNO3 (113 mg), tolfenamic acid (131 mg) and Na2CO3 (35.3 mg) are added to a round-bottom flask, then 10 ml of water is added and stirred at room temperature for 24 h in a dark place. The AgCl precipitate is centrifugally discarded, and the filtrate is dried in vacuum. The crude product is purified by silica gel column chromatography using an eluent of methanol:chloroform=1:9 to obtain the cisplatin-tolfenamic acid-based complex in a yield of 53%. The chemical structure of the complex synthesized in this embodiment is as shown in Formula 1. […]

As for `Cc1c(Cl)cccc1[N]1c2ccccc2C(=O)[O][Pt]1([NH2])[NH2]` [Embodiment 1, cisplatin-tolfenamic acid-based complex], the “means particle size of the nanoparticles” value worked out at 157 nm.
